Laboratory results as given in patent US11572350B1, “Benzothia(di)azepine compounds and their use as bile acid modulators” (Albireo AB, priority 2020, dated 2023).

Tests used:
OATP KO mice = assay: Effect of LBAT selective compounds on serum bile acid levels in OATP KO mice; assay type: in vivo; details: male OATP KO mice; for Effect on serum bile acid levels: oral dosing at the indicated doses, FIGS. 1 to 4, n=4
From the text: Effect of LBAT Selective Compounds on Serum Bile Acid Levels in OATP KO Mice
Male OATP KO mice (Oatp1a/1b cluster knockout mice, Taconic, USA) aged 8 to 9 weeks were used in the studies. After completion of quarantine and acclimatization period, animals were randomized based on body weight into experimental groups (n=4 mice in each). On the experimental day, a baseline blood sample was collected followed by oral dosing of vehicle (0.5% CMC, 0.1% Tween 80) or compound of Example 3, 6, 13 or 15 at the indicated doses. Blood samples were then collected at various time points after dose (indicated in each graph). Blood was allowed to clot, and serum was collected by centrifugation at 3000 g, 4° C. for 15 minutes and stored at −80° C. for further analysis. The total bile acid concentration in each serum sample was determined by using the CELL BIOLABS Total Bile Acids kit (STA631) according to manufacturer's instructions. Mean±SEM, n=4.

[1] = Bidirectional permeability assay (Caco-2 cells); assay type: in vitro ADME; details: human, FaSSIF donor buffer, 120 minutes at 37° C.; for Papp A→B at 120 min, 10 µM: Caco-2, pH 7.4, absorptive direction (A2B); for Papp B→A at 120 min, 10 µM: Caco-2, pH 7.4, secretory direction (B2A)
From the text: (§1) Bidirectional Permeability Assay (Caco-2 Cells)
(§2) HepaRG-Based Assay Protocol

human LBAT = target: T1, human LBAT (Homo sapiens, UniProt Q14973); assay: LBAT (h/m) assay: 3H-taurocholic acid uptake in human LBAT-overexpressing cells; assay type: cell-based; details: 0.3 μM 3H-taurocholic acid and 7.5 μM cold taurocholic acid, 20 minutes, read-out: hLBAT IC50
T1 construct: expressed in transfected cells; kept under Geneticin selection
T1 sequence (Q14973 1-349): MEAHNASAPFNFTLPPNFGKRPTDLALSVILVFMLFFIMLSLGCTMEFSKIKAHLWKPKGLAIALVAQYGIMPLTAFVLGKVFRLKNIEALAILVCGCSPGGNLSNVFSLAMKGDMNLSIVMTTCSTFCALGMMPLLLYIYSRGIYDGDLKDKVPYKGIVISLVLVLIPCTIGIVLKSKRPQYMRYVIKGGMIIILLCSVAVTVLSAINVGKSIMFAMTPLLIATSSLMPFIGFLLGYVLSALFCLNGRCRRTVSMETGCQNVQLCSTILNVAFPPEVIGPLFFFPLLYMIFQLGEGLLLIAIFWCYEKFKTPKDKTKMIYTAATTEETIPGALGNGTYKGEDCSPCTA
Description: LBAT (h/m) Assay Protocol
20,000 cells (Human or Mouse LBAT-overexpressing cells) were seeded in 96-wells plate (Corning CLS3809) in 100 μL MEM-alpha medium (Gibco 12571-063) supplemented with 10% FBS (Gibco 10438026) containing Geneticin (Gibco 10131-027) (1 mg/mL) and incubated at 37° C. in 5% CO2 for 24 hours. After incubation, media was decanted from the wells and cells were washed two times with 300 μL of basal MEM-alpha medium (FBS-free). After decanting basal MEM-alpha medium each time, plates were tapped against paper towel to ensure maximum removal of residual media. For human LBAT, incubation mix was prepared by adding test inhibitor dilutions (3-fold serial dilution in DMSO (Sigma D2650), 10 points) in MEM-alpha (without FBS) containing 0.3 μM 3H-taurocholic acid (ARC ART-1368) and 7.5 μM cold taurocholic acid (Sigma T4009) (maintaining 0.2% final DMSO concentration). For mouse LBAT, incubation mix was prepared by adding test inhibitor dilutions (3-fold serial dilution in DMSO, 10 points) in MEM-alpha (without FBS) containing 0.3 μM 3H-taurocholic acid and 25 μM cold taurocholic acid maintaining 0.2% final DMSO concentration). 50 μL of incubation mix containing test inhibitors was then added to the wells (in duplicate) and the plates were incubated for 20 minutes in a CO2 incubator at 37° C. After incubation, the reaction was stopped by keeping the plates on ice water mix for 2-3 minutes and then the incubation mix was aspirated completely from the wells. The wells were washed two times with 250 μL of chilled unlabelled 1 mM taurocholic acid dissolved in HEPES (Gibco 15630080)-buffered (10 mM) HBSS (Gibco 14175079) (pH 7.4). The plates were tapped against a paper towel after every wash to ensure maximum removal of blocking buffer.
100 μL of MicroScint-20 (PerkinElmer 6013621) was added to the wells and kept overnight at room temperature before reading the plates in TopCount NXT™ Microplate Scintillation and Luminescence Counter from PerkinElmer under 3H Test protocol (set at 120 seconds reading time per well, with normal plate orientation).
(§3) Preparation of Test Compound Dilutions
(§4) All test compounds were provided in powder form at room temperature. 10 mM DMSO stocks of the test compounds were prepared, aliquoted and stored at −20° C. From the 10 mM DMSO stock of the compounds, a 3-fold serial dilution in DMSO was prepared to get a total of 10 dilutions of the test compounds. 0.5 μL of this dilution in DMSO was added to 250 μL of FBS-free basal media containing 3H-taurocholic acid and cold taurocholic acid to prepare the incubation mixture.

human IBAT = target: T2, human IBAT (Homo sapiens, UniProt Q12908); assay: IBAT (h/m) assay: 3H-taurocholic acid uptake in human IBAT-overexpressing cells; assay type: cell-based; details: 0.25 μM 3H-taurocholic acid and 5 μM cold taurocholic acid, 20 minutes, highest test concentration 10 μM, read-out: hIBAT IC50
T2 construct: expressed in transfected cells; kept under Puromycin selection
T2 sequence (Q12908 1-348): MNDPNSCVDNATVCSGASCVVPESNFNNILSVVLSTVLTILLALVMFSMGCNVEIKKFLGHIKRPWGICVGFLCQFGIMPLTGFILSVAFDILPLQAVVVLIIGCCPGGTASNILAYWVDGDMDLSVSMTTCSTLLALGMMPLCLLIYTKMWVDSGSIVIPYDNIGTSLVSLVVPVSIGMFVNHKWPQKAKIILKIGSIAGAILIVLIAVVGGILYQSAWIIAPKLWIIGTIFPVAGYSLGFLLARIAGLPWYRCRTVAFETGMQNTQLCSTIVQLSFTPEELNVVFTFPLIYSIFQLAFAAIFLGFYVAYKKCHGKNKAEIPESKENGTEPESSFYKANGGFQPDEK
Description: IBAT (h/m) Assay Protocol
10,000 cells (Human or Mouse IBAT-overexpressing cells) were seeded in 96-wells plate (Corning CLS3809) in 200 μL MEM-alpha medium (Gibco 12571-063) supplemented with 10% FBS (Gibco 10438026) containing Puromycin (Gibco A1113803) (10 μg/mL) and incubated at 37° C. in 5% CO2 for 48 hours. After incubation, media was decanted from the wells and cells were washed two times with 300 μL of basal MEM-alpha medium (FBS-free). After decanting basal MEM-alpha medium each time, plates were tapped against paper towel to ensure maximum removal of residual media. Test inhibitor dilutions (highest test concentration being 10 μM, 3-fold serial dilution, 10 points) prepared in DMSO (Sigma D2650) were added in incubation mix (maintaining 0.2% final DMSO concentration) containing 0.25 μM 3H-taurocholic acid (ARC ART-1368) and 5 μM of cold taurocholic acid (Sigma T4009). 50 μL of incubation mix containing test inhibitors was then added to the wells (in duplicate) and the plates were incubated for 20 minutes in a CO2 incubator at 37° C. After incubation, the reaction was stopped by keeping the plates on ice water mix for 2-3 minutes and then the incubation mix was aspirated completely from the wells. The wells were washed two times with 250 μL of chilled unlabelled 1 mM taurocholic acid dissolved in HEPES (Gibco 15630080)-buffered (10 mM) HBSS (Gibco 14175079) (pH 7.4). The plates were tapped against a paper towel after every wash to ensure maximum removal of blocking buffer.
100 μL of MicroScint-20 (PerkinElmer 6013621) was added to the wells and kept overnight at room temperature before reading the plates in TopCount NXT™ Microplate Scintillation and Luminescence Counter from PerkinElmer under 3H Test protocol (set at 120 seconds reading time per well).
as §3, §4

Caco-2 cells = assay: Bidirectional permeability assay (Caco-2 cells); assay type: in vitro ADME; details: absorptive direction (A2B); FaSSIF donor buffer; 120 minutes at 37° C.
From the text: as §1, §2

SMILES: CCCCC1CN(c2ccccc2)c2cc(SCC)c(O/C=C(\F)C(=O)O)cc2S(=O)(=O)C1 (racemic) [Example 13, (Z)-3-((3-butyl-7-(ethylthio)-1,1-dioxido-5-phenyl-2,3,4,5-tetrahydro-1,5-benzothiazepin-8-yl)oxy)-2-fluoroacrylic acid]
- Serum bile acids level (OATP KO mice; 30 mg/kg oral, within one hour after dosing, pre-dose/vehicle 1 to 5 μmol/L): about 100 μmol/L
- Effect on serum bile acid levels (OATP KO mice): increased serum bile acids in a dose-dependent manner
- Papp A→B at 120 min, 10 µM [1]: 1.8 ×10⁻⁶ cm/s
- Papp B→A at 120 min, 10 µM [1]: 6.9 ×10⁻⁶ cm/s
- IC50 (human LBAT): 2.8 nM
- IC50 (human IBAT): 4890 nM

SMILES: CCCCC1CN(c2ccc(F)cc2)c2cc(SC)c(O/C=C/C(=O)O)cc2S(=O)(=O)N1 (single isomer, unassigned) [Example 3, (E)-3-((3-butyl-5-(4-fluorophenyl)-7-(methylthio)-1,1-dioxido-2,3,4,5-tetrahydro-1,2,5-benzothiadiazepin-8-yl)oxy)acrylic acid]
- Effect on serum bile acid levels (OATP KO mice): increased serum bile acid levels
- Papp A→B at 120 min, 10 µM [1]: 10.5 ×10⁻⁶ cm/s
- Papp B→A at 120 min, 10 µM [1]: 17.1 ×10⁻⁶ cm/s
- IC50 (human LBAT): 1.6 nM
- IC50 (human IBAT): 2020 nM

SMILES: CCCCC1CN(c2ccccc2)c2cc(SCC)c(O/C=C(\F)C(=O)O)cc2S(=O)(=O)C1 (single isomer, unassigned) [Example 15, (Z)-3-((3-butyl-7-(ethylthio)-1,1-dioxido-5-phenyl-2,3,4,5-tetrahydro-1,5-benzothiazepin-8-yl)oxy)-2-fluoroacrylic acid]
- Effect on serum bile acid levels (OATP KO mice): increased serum bile acid levels
- Papp B→A at 120 min, 10 µM [1]: 5.3 ×10⁻⁶ cm/s
- Permeability (Caco-2) Papp A2B (Caco-2 cells): 1.3 ×10⁻⁶ cm/s
- IC50 (human LBAT): 1.2 nM
- IC50 (human IBAT): > 3330 nM
